Experimental data from patent US20200399242A1, “NOVEL COMPOUNDS” (INFLAZOME LIMITED, priority 2018, published 2020).
Counter-ions that a name gives are not always drawn.

Molecular target: T1, NLRP3 (Homo sapiens, UniProt Q96P20)
T1 construct: Seed THP-1 cells (25,000 cells/well) containing 1.0 μg/ml LPS in 40 μl of RPMI medium; host or cells: THP-1 cells
Assay: THP-1 cells pyroptosis assay (LPS-primed, nigericin-triggered, resazurin read-out)
Format: cell-based
Conditions: 1 μg/ml LPS, compound 3 hrs, nigericin 5 μM 1 hr, resazurin viability
Method: THP-1 cells (ATCC #TIB-202) were grown in RPMI containing L-glutamine (Gibco #11835) supplemented with 1 mM sodium pyruvate (Sigma #S8636) and penicillin (100 units/ml)/streptomycin (0.1 mg/ml) (Sigma #P4333) in 10% Fetal Bovine Serum (FBS) (Sigma #F0804). The cells were routinely passaged and grown to confluency (˜10^6 cells/ml). On the day of the experiment, THP-1 cells were harvested and resuspended into RPMI medium (without FBS). The cells were then counted and viability (>90%) checked by Trypan blue (Sigma #T8154). Appropriate dilutions were made to give a concentration of 625,000 cells/ml. To this diluted cell solution was added LPS (Sigma #L4524) to give a 1 μg/ml Final Assay Concentration (FAC). 40 μl of the final preparation was aliquoted into each well of a 96-well plate. The plate thus prepared was used for compound screening. The following method step-by-step assay was followed for compound screening. • 1. Seed THP-1 cells (25,000 cells/well) containing 1.0 μg/ml LPS in 40 μl of RPMI medium (without FBS) in 96-well, black walled, clear bottom cell culture plates coated with poly-D-lysine (VWR #734-0317) • 2. Add 5 μl compound (8 points half-log dilution, with 10 μM top dose) or vehicle (DMSO 0.1% FAC) to the appropriate wells • 3. Incubate for 3 hrs at 37° C., 5% CO2 • 4. Add 5 μl nigericin (Sigma #N7143) (FAC 5 μM) to all wells • 5. Incubate for 1 hr at 37° C., 5% CO2 • 6. At the end of the incubation period, spin plates at 300×g for 3 mins and remove supernatant • 7. Then add 50 μl of resazurin (Sigma #R7017) (FAC 100 μM resazurin in RPMI medium without FBS) and incubate plates for a further 1-2 hrs at 37° C. and 5% CO2 • 8. Plates were read in an Envision reader at Ex 560 nm and Em 590 nm • 9. IC50 data is fitted to a non-linear regression equation (log inhibitor vs response-variable slope 4-parameters) The results of the pyroptosis assay are summarised in Table 1 below as THP IC50.

T1 sequence (Q96P20 whole entry): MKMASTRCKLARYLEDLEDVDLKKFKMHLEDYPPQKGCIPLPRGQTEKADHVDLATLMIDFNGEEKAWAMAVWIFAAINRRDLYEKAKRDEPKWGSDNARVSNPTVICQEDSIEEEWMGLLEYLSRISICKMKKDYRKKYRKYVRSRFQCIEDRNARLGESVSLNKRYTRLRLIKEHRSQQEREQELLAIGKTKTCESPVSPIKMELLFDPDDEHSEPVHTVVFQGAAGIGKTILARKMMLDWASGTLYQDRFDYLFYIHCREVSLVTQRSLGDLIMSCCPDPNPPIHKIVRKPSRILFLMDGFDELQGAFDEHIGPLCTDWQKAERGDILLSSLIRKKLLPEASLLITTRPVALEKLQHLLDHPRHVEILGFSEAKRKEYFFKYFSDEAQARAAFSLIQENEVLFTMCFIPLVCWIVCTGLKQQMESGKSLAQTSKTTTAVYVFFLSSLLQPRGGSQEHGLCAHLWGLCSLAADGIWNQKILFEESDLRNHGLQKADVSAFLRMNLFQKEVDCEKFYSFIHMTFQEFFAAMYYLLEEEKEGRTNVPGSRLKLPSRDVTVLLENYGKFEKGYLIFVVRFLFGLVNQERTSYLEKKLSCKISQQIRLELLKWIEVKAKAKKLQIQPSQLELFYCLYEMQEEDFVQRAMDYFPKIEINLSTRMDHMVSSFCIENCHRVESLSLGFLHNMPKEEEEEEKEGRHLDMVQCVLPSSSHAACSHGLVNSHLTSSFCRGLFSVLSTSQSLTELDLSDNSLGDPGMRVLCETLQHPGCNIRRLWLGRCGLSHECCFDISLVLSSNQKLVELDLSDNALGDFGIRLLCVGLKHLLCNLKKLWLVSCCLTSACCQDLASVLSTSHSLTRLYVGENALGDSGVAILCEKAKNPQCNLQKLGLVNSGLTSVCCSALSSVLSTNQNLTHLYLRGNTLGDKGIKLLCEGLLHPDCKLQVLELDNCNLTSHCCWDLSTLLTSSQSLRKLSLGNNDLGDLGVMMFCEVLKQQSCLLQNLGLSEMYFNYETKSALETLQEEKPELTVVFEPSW

Work on `COc1cc(-c2cc(F)cc(C(C)C)c2CC(=O)NS(=O)(=O)c2ccc(=O)n(C)c2)ccn1` [Example 1, 2-(4-Fluoro-2-isopropyl-6-(2-methoxypyridin-4-yl)phenyl)-N-((1-methyl-6-oxo-,6-dihydropyridin-3-yl)sulfonyl)acetamide, potassium salt] yielded an IC50 of 5 to 10 µM.

With `COc1cc(-c2cc(F)cc(C(C)C)c2CC(=O)NS(=O)(=O)c2ccc(=O)n(C(C)C)c2)ccn1` [Example 2, 2-(4-Fluoro-2-isopropyl-6-(2-methoxypyridin-4-yl)phenyl)-N-((1-isopropyl-6-oxo-1,6-dihydropyridin-3-yl)sulfonyl)acetamide, potassium salt] the IC50 was 1 to 5 µM.

With `COc1cc(-c2cc(F)cc(C(C)C)c2CC(=O)NS(=O)(=O)c2cn(C)c(=O)n(C)c2=O)ccn1` [Example 3, N-((1,3-Dimethyl-2,4-dioxo-1,2,3,4-tetrahydropyrimidin-5-yl)sulfonyl)-2-(4-fluoro-2-isopropyl-6-(2-methoxypyridin-4-yl)phenyl) acetamide] the IC50 was no more than 1 µM.
